Some test systems named below: HT29 colon; NCI-H522 lung; U251 CNS; NCI-H460 lung; MALME-3M melanoma.
Experiment in all cases: growth of human tumour cells (NCI), 48 h

SMILES strings stand for the structures. Several values for one entry are separate records, joined by “and”; a condition that tells them apart may be missing. Equal values may be shown once.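 Where inhibition never reached the appropriate level, the endpoint shown equals the highest concentration tested. Otherwise, values were interpolated linearly from a five-concentration, 48-hour dose response in 96-well plates. Abbreviation: GI50, concentration required for 50% inhibition of growth. The concentration for full growth arrest is given as TGI.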

Turning to `O=c1c(OC/C(=N/O)c2ccccc2)c(-c2ccccc2)oc2ccccc12`, the GI50 in the assay with HT29 colon was 13700 nM; in the assay on NCI-H522 lung, 17000 nM; in the assay with U251 CNS, 11000 nM; in the assay on NCI-H460 lung, 11300 nM. The TGI in the assay with HT29 colon is 34.3 µM; in the assay with NCI-H522 lung, above 50 µM; with U251 CNS, 27.3 µM; with NCI-H460 lung it was 27.5 µM.
`Cn1cnc([N+](=O)[O-])c1Sc1ncnc2nc[nH]c12`: the GI50 with HT29 colon is 7170 nM and 22600 nM; with MALME-3M melanoma it was 4220 nM and 34900 nM; in the assay with NCI-H522 lung it was 7560 nM; with U251 CNS it was 13900 nM and 27700 nM; in the assay with NCI-H460 lung, 6580 nM and 16500 nM. The TGI with HT29 colon, with MALME-3M melanoma, in the assay with NCI-H522 lung, in the assay with U251 CNS and with NCI-H460 lung was above 100 µM each time.
In the case of `OC1CCC(Oc2cccc3cnc(Nc4ccc5nc[nH]c5c4)nc23)CC1` (stereo unspecified), the GI50 in the assay with HT29 colon is 437 nM; in the assay with MALME-3M melanoma it was 1030 nM; with NCI-H522 lung it was 1130 nM; in the assay with U251 CNS, 428 nM; in the assay on NCI-H460 lung, 275 nM. Also, the TGI in the assay with HT29 colon turned out to be 9.15 µM; in the assay with MALME-3M melanoma, 5.01 µM; with NCI-H522 lung it was 5.3 µM; in the assay with U251 CNS, 15.7 µM; in the assay with NCI-H460 lung, 11.8 µM.
For `CN(C)CN1C(=O)S/C(=C2\C(=O)N(CN(C)C)c3ccccc32)C1=O`, the TGI in the assay on HT29 colon, with NCI-H522 lung, with U251 CNS and in the assay on NCI-H460 lung was above 100 µM throughout.
Take `O=C(Nc1ccc(Br)cc1)c1cc(Br)cc(Br)c1O`: the GI50 in the assay on HT29 colon is 4020 nM; in the assay with MALME-3M melanoma, 2150 nM; with NCI-H522 lung, 2230 nM; in the assay with U251 CNS, 2790 nM; with NCI-H460 lung, 2600 nM. The TGI in the assay on HT29 colon was determined as 22.7 µM; in the assay on MALME-3M melanoma, 5.63 µM; in the assay with NCI-H522 lung, 7.7 µM; in the assay on U251 CNS, 23.1 µM; with NCI-H460 lung, 6.86 µM.
Turning to `CN(C)CCNC(=O)c1cccc(CO)c1[N+](=O)[O-]`, the TGI in the assay with HT29 colon, with MALME-3M melanoma, in the assay on NCI-H522 lung, in the assay on U251 CNS and in the assay with NCI-H460 lung was above 100 µM each time.
Consider `O=C(/C=C/c1ccc([N+](=O)[O-])o1)NNC(=O)c1cc2ccccc2cc1O`, for which the GI50 in the assay on HT29 colon is 2880 nM; with MALME-3M melanoma, 1340 nM; with NCI-H522 lung, 565 nM; in the assay on U251 CNS, 2170 nM; with NCI-H460 lung it was 2820 nM. The TGI in the assay with HT29 colon is above 100 µM; with MALME-3M melanoma, 4.91 µM; in the assay with NCI-H522 lung, 2.03 µM; in the assay with U251 CNS it was above 26.1 µM; in the assay with NCI-H460 lung, above 100 µM.
As for `O=Nc1c2cccnc2n2nnc3ccc(Cl)cc3c12`, the GI50 in the assay on HT29 colon is 1270 nM; in the assay with MALME-3M melanoma it was 1570 nM; in the assay with NCI-H522 lung, 1140 nM; in the assay on U251 CNS, 2570 nM; in the assay with NCI-H460 lung it was 2110 nM. For the same compound, the TGI with HT29 colon came to 14.5 µM; with MALME-3M melanoma, 4.95 µM; with NCI-H522 lung it was 3.38 µM; with U251 CNS, 13.2 µM; with NCI-H460 lung, 7.8 µM.
On to `CCc1ccc(C2=C(O)C(=O)C(c3ccc(CC)cc3)=C(O)C2=O)cc1`, for which the GI50 in the assay on HT29 colon was 2340 nM; with MALME-3M melanoma, 1280 nM; with NCI-H522 lung, 1510 nM; in the assay with U251 CNS, 2260 nM; in the assay with NCI-H460 lung, 2060 nM. Moreover, the TGI in the assay on HT29 colon came to 7.79 µM; in the assay with MALME-3M melanoma, 5.4 µM; in the assay on NCI-H522 lung, 4.61 µM; in the assay with U251 CNS, 10.1 µM; in the assay with NCI-H460 lung it was 5 µM.
With `O=C(O)c1nnsc1COCc1ccccc1`, the TGI with HT29 colon, in the assay with MALME-3M melanoma, with NCI-H522 lung, in the assay with U251 CNS and in the assay with NCI-H460 lung was above 100 µM in each case.
`O=C1C=C(c2cc(Br)c(O)c(Br)c2)/C(=C/c2cc(Br)c(O)c(Br)c2)O1`: the GI50 in the assay on HT29 colon was 39200 nM; in the assay with MALME-3M melanoma, 41500 nM; with NCI-H522 lung, 30400 nM; in the assay with U251 CNS, 26400 nM; in the assay on NCI-H460 lung, 24100 nM. For the same compound, the TGI in the assay on HT29 colon, in the assay with MALME-3M melanoma, with NCI-H522 lung, with U251 CNS and with NCI-H460 lung was above 75 µM in each case.
In the case of `NC(N)=N/N=C/c1c(-c2cc(Cl)sc2Cl)nc2n1CCS2`, the GI50 was 20400 nM in the assay on NCI-H522 lung, 7610 nM in the assay with U251 CNS and 25500 nM with NCI-H460 lung. Besides, the TGI with NCI-H522 lung is above 50 µM; in the assay on U251 CNS, 14.4 µM; with NCI-H460 lung, above 50 µM.
In the case of `CC1(C)C2CCC1C(=O)C(C=O)C2` (stereo unspecified), the TGI with HT29 colon, with MALME-3M melanoma, in the assay on NCI-H522 lung, with U251 CNS and in the assay with NCI-H460 lung was above 100 µM each time.
`O=C1Cc2c(-c3ccccc3)cc(-c3cccc(Cl)c3)nc2-c2ccccc2N1`: the TGI in the assay on HT29 colon was determined as 5.17 µM; in the assay on MALME-3M melanoma, 13.3 µM; in the assay on NCI-H522 lung it was 5.1 µM; in the assay on U251 CNS, 3.12 µM; in the assay on NCI-H460 lung, 3.71 µM.
Regarding `COC(=O)c1ccc2c(c1)c1c(C)c3cnccc3c(C)c1n2C`, the GI50 was 41.8 nM with HT29 colon; 61.5 nM with MALME-3M melanoma; 66.7 nM with NCI-H522 lung; 49.9 nM in the assay with U251 CNS; 178 nM in the assay on NCI-H460 lung. For the same compound, the TGI in the assay with HT29 colon amounted to 1.4 µM; in the assay with MALME-3M melanoma, 0.314 µM; in the assay on NCI-H522 lung, 0.528 µM; with U251 CNS, 1.48 µM; in the assay with NCI-H460 lung, 0.674 µM.
As for `NC(=O)c1ccccc1NC(=O)C(=O)C(c1cnc2ccc([N+](=O)[O-])cc2n1)[N+](=O)[O-]` (stereo unspecified), the TGI in the assay with HT29 colon, in the assay on MALME-3M melanoma, in the assay with NCI-H522 lung, in the assay on U251 CNS and in the assay with NCI-H460 lung was above 100 µM in each case.
Regarding `c1cc(-c2sc(-c3ccncc3)c(-c3ccncc3)c2-c2ccncc2)ccn1`, the TGI with HT29 colon is 27.7 µM; in the assay on MALME-3M melanoma, 32.5 µM; in the assay on NCI-H522 lung, 35.9 µM; in the assay with U251 CNS, 27.8 µM; in the assay on NCI-H460 lung, 23.8 µM.
The like results for `NC(N)=NNC(=O)C(=O)O` were, in that order, above 100 µM, above 100 µM, above 100 µM, above 100 µM and above 100 µM.
In the case of `COc1cccc2c(=O)c3c(sc12)c(NCCCN)nc1ccccc13`, the GI50 was 1410 nM with HT29 colon, 1580 nM with MALME-3M melanoma, 1810 nM in the assay on NCI-H522 lung and 745 nM in the assay on NCI-H460 lung. Moreover, the TGI was 2.99 µM in the assay with HT29 colon, 2.99 µM with MALME-3M melanoma, 3.65 µM in the assay with NCI-H522 lung and 2.23 µM in the assay with NCI-H460 lung.
As to `CN(C)CCNc1cccc2sc3ccc(O)cc3c(=O)c12`, the GI50 is 1630 nM in the assay on HT29 colon, 1590 nM with MALME-3M melanoma, 1770 nM in the assay on NCI-H522 lung and 548 nM in the assay with NCI-H460 lung. Besides, the TGI in the assay on HT29 colon was 4.08 µM; in the assay with MALME-3M melanoma it was 3.13 µM; in the assay on NCI-H522 lung, 5.66 µM; in the assay with NCI-H460 lung, 2.47 µM.
Regarding `O=[N+]([O-])/C=C\c1ccc2c(c1)OCO2`, the GI50 in the assay with HT29 colon is 2070 nM; with MALME-3M melanoma, 14600 nM; in the assay on U251 CNS, 1950 nM; in the assay with NCI-H460 lung, 10600 nM. The TGI in the assay on HT29 colon was 4.89 µM; with MALME-3M melanoma it was 32.9 µM; in the assay on U251 CNS it was 5.02 µM; in the assay with NCI-H460 lung it was 27.5 µM.
Consider `O=C(N/N=C/c1ccc(F)cc1)c1[nH]c2ccc(I)cc2c1-c1ccccc1`, for which the GI50 with HT29 colon is 350 nM; with NCI-H522 lung, 257 nM; in the assay with U251 CNS, 484 nM; with NCI-H460 lung, 399 nM. Besides, the TGI with HT29 colon is 10 µM; in the assay with NCI-H522 lung, 1.74 µM; in the assay with U251 CNS, above 37.9 µM; in the assay on NCI-H460 lung, 5.04 µM.
With `O=C1/C(=C\c2cccs2)Oc2ccccc21`, the TGI in the assay on HT29 colon, in the assay on NCI-H522 lung, with U251 CNS and in the assay with NCI-H460 lung was above 100 µM throughout.
Turning to `ClCCn1cnc2c(SCc3ccccc3)ncnc21`, the GI50 in the assay with HT29 colon was 872 nM; in the assay on MALME-3M melanoma, 25700 nM; in the assay with U251 CNS, 623 nM; in the assay with NCI-H460 lung, 356 nM. For the same compound, the TGI was above 100 µM in the assay with HT29 colon, above 100 µM with MALME-3M melanoma, above 100 µM with U251 CNS and 30.1 µM in the assay on NCI-H460 lung.
For the compound `OCC1OC(N2C=C(c3nc4ccccc4s3)C3C=CC=CC32)C(O)C1O` (stereo unspecified), the GI50 was 9520 nM with HT29 colon, above 50000 nM in the assay with NCI-H522 lung, 6000 nM in the assay with U251 CNS and 9910 nM in the assay on NCI-H460 lung. Further, the TGI is 25.2 µM in the assay on HT29 colon, above 50 µM with NCI-H522 lung, 14.8 µM in the assay on U251 CNS and above 50 µM with NCI-H460 lung.
Take `N#CC1C(N)=NNC1c1ccc(-c2ccc(-c3nc4ccccc4o3)cc2)o1` (stereo unspecified): the figures for the GI50 with NCI-H522 lung, in the assay on U251 CNS and in the assay with NCI-H460 lung were 53400 nM, 28400 nM and 23800 nM, respectively. Further, the TGI in the assay with NCI-H522 lung, in the assay on U251 CNS and with NCI-H460 lung was above 100 µM each time.
